From patent US12435044B2, “Pyridazinone herbicides and pyridazinone intermediates used to prepare a herbicide” (FMC Corporation, priority 2018, dated 2025)

Assays:
Assay type in all cases: in vivo
[1] = system: common waterhemp (AMATU; Amaranthus rudis); assay: Test J pre-/postemergence, mixtures of Cpd. No. 20 with (b15C2)
Source text: (§1) This test evaluated the effect of mixtures of Cpd. No. 20 with (b15C2) on several plant species. Seeds of plant species selected from corn (ZEAMD; Zea mays, cv. ‘Pioneer 1184’), soybean (GLXMA; Glycine max, cv. Pioneer 35T58), giant foxtail (SETFA; Setaria faberi), palmer amaranth (AMAPA; Amaranthus palmeri), common waterhemp (AMATU; Amaranthus rudis), mare's tail (ERICA; Conyza canadensis), and common ragweed (AMBEL; Ambrosia artemisiifolia) were planted in pots containing Tama Silt Loam soil and treated preemergence with a directed soil spray using test chemicals formulated in a non-phytotoxic solvent mixture which included a surfactant.
(§2) At the same time, plants selected from these crop and weed species were planted in pots containing Redi-Earth® planting medium (Scotts Company, 14111 Scottslawn Road, Marysville, Ohio 43041) comprising spaghnum peat moss, vermiculite, wetting agent and starter nutrients and treated postemergence with test chemicals formulated in the same manner. Plants ranged in height from 2 to 10 cm and were in the one- to two-leaf stage for the postemergence treatment. Treated plants and untreated controls were maintained in a greenhouse for approximately 14-21 d, after which time all treated plants were compared to untreated controls and visually evaluated for injury. Plant response ratings, summarized in Tables J1 & J2, are based on a 0 to 100 scale where 0 is no effect and 100 is complete control. A dash (-) response means no test result. Test results are presented as a mean of 4 reps.

[2] = system: palmer amaranth (AMAPA; Amaranthus palmeri); assay: as above
Source text: as §1, §2

[3] = system: field bindweed (Convolvulus arvensis); assay: Test E pre-/postemergence greenhouse test
Method in brief: (§3)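 Visual control ratings on a 0–100 scale (0 = no effect, 100 = complete control), scored versus untreated controls 14 to 21 d after treatment. Preemergence: silt loam soil. Postemergence: plants at 2 to 18 cm, 1- to 4-leaf stage, in peat-based potting mix.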

kochia (Kochia scoparia) = assay: Test E pre-/postemergence greenhouse test
Method in brief: as §3

[4] = system: nutsedge, yellow (Cyperus esculentus); assay: Test E pre-/postemergence greenhouse test; settings: Preemergence
Method in brief: as §3

[5] = system: arrowleaf sida (Sida rhombifolia); assay: Test E pre-/postemergence greenhouse test
Method in brief: as §3

[6] = system: poinsettia, wild (Euphorbia heterophylla); assay: Test E pre-/postemergence greenhouse test
Method in brief: as §3

[7] = system: crabgrass, Brazil (Digitaria horizontalis); assay: Test E pre-/postemergence greenhouse test
Method in brief: as §3

[8] = system: goosegrass (Eleusine indica); assay: Test E pre-/postemergence greenhouse test; settings: Preemergence
Method in brief: as §3

[9] = system: morningglory (Ipomoea coccinea); assay: Test E pre-/postemergence greenhouse test; settings: Preemergence
Method in brief: as §3

[10] = system: johnsongrass (Sorghum halepense); assay: Test E pre-/postemergence greenhouse test; settings: Preemergence
Method in brief: as §3

Cc1ccc2ccc(C)c(-c3c(O)c(Cl)nn(C)c3=O)c2c1 [Cpd. No. 20, 6-chloro-4-(2,7-dimethyl-1-naphthalenyl)-5-hydroxy-2-methyl-3(2H)-pyridazinone]
AMATU plant response rating, 0 to 100 scale ([1]; postemergence, 8 g a.i./ha): 55
AMATU plant response rating, 0 to 100 scale ([1]; postemergence, 16 g a.i./ha): 53
AMATU plant response rating, 0 to 100 scale ([1]; postemergence, 31 g a.i./ha): 71
AMATU plant response rating, 0 to 100 scale ([1]; postemergence, 62 g a.i./ha): 86
AMATU plant response rating, 0 to 100 scale ([1]; preemergence, 8 g a.i./ha): 0
AMATU plant response rating, 0 to 100 scale ([1]; preemergence, 16 g a.i./ha): 20
AMATU plant response rating, 0 to 100 scale ([1]; preemergence, 31 g a.i./ha): 29
AMATU plant response rating, 0 to 100 scale ([1]; preemergence, 62 g a.i./ha): 50
AMAPA plant response rating, 0 to 100 scale ([2]; postemergence, 8 g a.i./ha): 18
AMAPA plant response rating, 0 to 100 scale ([2]; postemergence, 16 g a.i./ha): 15
AMAPA plant response rating, 0 to 100 scale ([2]; postemergence, 31 g a.i./ha): 33
AMAPA plant response rating, 0 to 100 scale ([2]; postemergence, 62 g a.i./ha): 63
AMAPA plant response rating, 0 to 100 scale ([2]; preemergence, 8 g a.i./ha): 20
AMAPA plant response rating, 0 to 100 scale ([2]; preemergence, 16 g a.i./ha): 46
AMAPA plant response rating, 0 to 100 scale ([2]; preemergence, 31 g a.i./ha): 48
AMAPA plant response rating, 0 to 100 scale ([2]; preemergence, 62 g a.i./ha): 60
Plant response rating, Field Bindweed ([3]; Postemergence, 16 g ai/ha): 75
Plant response rating, Field Bindweed ([3]; Postemergence, 31 g ai/ha): 90
Plant response rating, Field Bindweed ([3]; Postemergence, 62 g ai/ha): 90
Plant response rating, Field Bindweed ([3]; Postemergence, 125 g ai/ha): 90
Plant response rating, Field Bindweed ([3]; Preemergence, 16 g ai/ha): 5
Plant response rating, Field Bindweed ([3]; Preemergence, 31 g ai/ha): 85
Plant response rating, Field Bindweed ([3]; Preemergence, 62 g ai/ha): 90
Plant response rating, Field Bindweed ([3]; Preemergence, 125 g ai/ha): 100
Plant response rating, Kochia (kochia (Kochia scoparia); Postemergence, 16 g ai/ha): 80
Plant response rating, Kochia (kochia (Kochia scoparia); Postemergence, 31 g ai/ha): 75
Plant response rating, Kochia (kochia (Kochia scoparia); Postemergence, 62 g ai/ha): 80
Plant response rating, Kochia (kochia (Kochia scoparia); Postemergence, 125 g ai/ha): 90
Plant response rating, Kochia (kochia (Kochia scoparia); Preemergence, 16 g ai/ha): 0
Plant response rating, Kochia (kochia (Kochia scoparia); Preemergence, 31 g ai/ha): 50
Plant response rating, Kochia (kochia (Kochia scoparia); Preemergence, 62 g ai/ha): 70
Plant response rating, Kochia (kochia (Kochia scoparia); Preemergence, 125 g ai/ha): 85
Plant response rating, Nutsedge, Yellow ([4]; 16 g ai/ha): 10
Plant response rating, Nutsedge, Yellow ([4]; 31 g ai/ha): 15
Plant response rating, Nutsedge, Yellow ([4]; 62 g ai/ha): 75
Plant response rating, Nutsedge, Yellow ([4]; 125 g ai/ha): 75
Plant response rating, Arrowleaf Sida ([5]; Postemergence, 16 g ai/ha): 60
Plant response rating, Arrowleaf Sida ([5]; Postemergence, 31 g ai/ha): 70
Plant response rating, Arrowleaf Sida ([5]; Postemergence, 62 g ai/ha): 70
Plant response rating, Arrowleaf Sida ([5]; Postemergence, 125 g ai/ha): 75
Plant response rating, Arrowleaf Sida ([5]; Preemergence, 16 g ai/ha): 90
Plant response rating, Arrowleaf Sida ([5]; Preemergence, 31 g ai/ha): 90
Plant response rating, Arrowleaf Sida ([5]; Preemergence, 62 g ai/ha): 80
Plant response rating, Arrowleaf Sida ([5]; Preemergence, 125 g ai/ha): 85
Plant response rating, Poinsettia, Wild ([6]; Postemergence, 16 g ai/ha): 20
Plant response rating, Poinsettia, Wild ([6]; Postemergence, 31 g ai/ha): 50
Plant response rating, Poinsettia, Wild ([6]; Postemergence, 62 g ai/ha): 40
Plant response rating, Poinsettia, Wild ([6]; Postemergence, 125 g ai/ha): 50
Plant response rating, Poinsettia, Wild ([6]; Preemergence, 16 g ai/ha): 0
Plant response rating, Poinsettia, Wild ([6]; Preemergence, 31 g ai/ha): 0
Plant response rating, Poinsettia, Wild ([6]; Preemergence, 62 g ai/ha): 0
Plant response rating, Poinsettia, Wild ([6]; Preemergence, 125 g ai/ha): 0
Plant response rating, Crabgrass, Brazil ([7]; Postemergence, 16 g ai/ha): 20
Plant response rating, Crabgrass, Brazil ([7]; Postemergence, 31 g ai/ha): 40
Plant response rating, Crabgrass, Brazil ([7]; Postemergence, 62 g ai/ha): 60
Plant response rating, Crabgrass, Brazil ([7]; Postemergence, 125 g ai/ha): 85
Plant response rating, Crabgrass, Brazil ([7]; Preemergence, 16 g ai/ha): 75
Plant response rating, Crabgrass, Brazil ([7]; Preemergence, 31 g ai/ha): 90
Plant response rating, Crabgrass, Brazil ([7]; Preemergence, 62 g ai/ha): 100
Plant response rating, Crabgrass, Brazil ([7]; Preemergence, 125 g ai/ha): 100
Plant response rating, Goosegrass ([8]; 16 g ai/ha): 0
Plant response rating, Goosegrass ([8]; 31 g ai/ha): 0
Plant response rating, Goosegrass ([8]; 62 g ai/ha): 30
Plant response rating, Goosegrass ([8]; 125 g ai/ha): 75
Plant response rating, Morningglory ([9]; 16 g ai/ha): 10
Plant response rating, Morningglory ([9]; 31 g ai/ha): 20
Plant response rating, Morningglory ([9]; 62 g ai/ha): 60
Plant response rating, Morningglory ([9]; 125 g ai/ha): 100
Plant response rating, Johnsongrass ([10]; 16 g ai/ha): 0
Plant response rating, Johnsongrass ([10]; 31 g ai/ha): 0
Plant response rating, Johnsongrass ([10]; 125 g ai/ha): 50
